Data published in ChEMBL document CHEMBL1629648, “New composite genetic element of the Tn916 family with dual macrolide resistance genes in a Streptococcus pneumoniae isolate belonging to clonal complex 271” (2009).
In brackets after ≈: the same amount, converted by molar mass.

The compounds below were run on Streptococcus pneumoniae (assay: Antimicrobial activity against multidrug resistant Streptococcus pneumoniae serotype 19F S43 carring erm(B),mef(E) and tet(M) gene).
Format: functional
CCC[C@@H]1C[C@@H](C(=O)N[C@@H]([C@H]2O[C@H](SC)[C@H](O)[C@@H](O)[C@H]2O)[C@H](C)Cl)N(C)C1 [CLINDAMYCIN] gave an MIC of over 256 µg/mL.
For CN(C)[C@@H]1C(O)=C(C(N)=O)C(=O)[C@@]2(O)C(O)=C3C(=O)c4c(O)cccc4[C@@](C)(O)[C@H]3C[C@@H]12 [TETRACYCLINE], the MIC was 16 µg/mL (≈ 36 µM).
With CC1(C)S[C@@H]2[C@H](NC(=O)Cc3ccccc3)C(=O)N2[C@H]1C(=O)O [PENICILLIN G] the MIC was 4 µg/mL (≈ 12 µM).
For CC[C@H]1OC(=O)[C@H](C)[C@@H](O[C@H]2C[C@@](C)(OC)[C@@H](O)[C@H](C)O2)[C@H](C)[C@@H](O[C@@H]2O[C@H](C)C[C@H](N(C)C)[C@H]2O)[C@](C)(O)C[C@@H](C)C(=O)[C@H](C)[C@@H](O)[C@]1(C)O [ERYTHROMYCIN], the MIC was over 256 µg/mL.
